Results taken from patent US20140213446A1, “HERBICIDAL COMPOSITIONS AND METHODS USING COMBINATIONS OF 4-AMINO-3-CHLORO-6-(4-CHLORO-2-FLUORO-3-METHOXYPHENYL)PYRIDINE-2-CARBOXYLIC ACID OR A DERIVATIVE THEREOF AND AN ARYLOXYPHENOXY PROPIONATE ACCASE INHIBITOR HERBICIDE” (DOW AGROSCIENCES LLC, priority 2013, published 2014).

Key:
Test in all cases: Postemergence foliar-applied herbicidal mixtures, weeds common to row crops
Assay type in all cases: in vivo
[1] = tested on: DIGSA Digitaria sanguinalis (L.) Scop. (large crabgrass)
Excerpt: (§1) Evaluation of Postemergence Foliar-Applied Herbicidal Mixtures for Control of Weeds Common to Row Crops such as Corn and Soybeans. Seeds or nutlets of the desired test plant species were planted in a soil matrix prepared by mixing a loam or sandy loam soil (e.g., 28.6 percent silt, 18.8 percent clay, and 52.6 percent sand, with a pH of about 5.8 and an organic matter content of about 1.8 percent) and calcareous grit in an 80 to 20 ratio. The soil matrix was contained in plastic pots with a surface area of 84.6 cm^2 and a volume of 560 cubic centimeters (cm^3). When required to ensure good germination and healthy plants, a fungicide treatment and/or other chemical or physical treatment was applied. The plants were grown for 7-31 d in a greenhouse with an approximate 15 h photoperiod which was maintained at about 23-29° C. during the day and 22-28° C. during the night. Nutrients (Peters Excel® 15-5-15 5-Ca 2-Mg) and water were added on a regular basis and supplemental lighting was provided with overhead metal halide 1000-Watt lamps as necessary. The plants were employed for testing when they reached the first, second, or third true leaf stage.
(§2) Treatment requirements were calculated based upon the rates being tested, the concentration of active ingredient or acid equivalent in the formulation, and a 12 mL application volume at a rate of 187 L/ha.
(§3) Treatments consisted of the potassium (K^+) salt of 4-amino-3-chloro-6-(4-chloro-2-fluoro-3-methoxyphenyl)-pyridine-2-carboxylic acid (Cmpd 4) formulated as a soluble liquid (SL), the propargyl ester of 4-amino-3-chloro-6-(4-chloro-2-fluoro-3-methoxyphenyl)-pyridine-2-carboxylic acid (Cmpd 2) as technical grade material, or the benzyl ester of 4-amino-3-chloro-6-(4-chloro-2-fluoro-3-methoxyphenyl)-pyridine-2-carboxylic acid (Cmpd 3) as technical grade material and quizalofop-p-ethyl (Assure® II) alone and in combination. Forms of compound of formula (I) and quizalofop-P-ethyl were applied on an acid equivalent basis.
(§4) For treatments comprised of formulated compounds, measured amounts of compounds were placed individually in 25 mL glass vials and diluted in a volume of 1.5% (v/v) Agri-Dex® crop oil concentrated to obtain 6× stock solutions. […] Application solutions were prepared by adding an appropriate amount of each stock solution (typically 2 mL) and diluted to the appropriate final concentrations with the addition of an appropriate amount of an aqueous mixture of 1.5% (v/v) crop oil concentrate and water so that the final spray solutions contained 1.25+/−0.05% (v/v) crop oil concentrate.
(§5) For treatments comprised of formulated and technical compounds, weighed amounts of the technical materials were placed individually in 25 mL glass vials and dissolved in a volume of 97:3 v/v acetone/DMSO to obtain 6× stock solutions, and measured amounts of the formulated compounds were placed individually in 25 mL glass vials and diluted in a volume of 1.5% (v/v) crop oil concentrate or water to obtain 6× stock solutions. […] Application solutions were prepared by adding an appropriate amount of each stock solution (e.g., 2 mL) and diluted to the appropriate final concentrations with the addition of an appropriate amount of an aqueous mixture of 1.5% (v/v) crop oil concentrate and water so that the final spray solutions contained 1.25% (v/v) crop oil concentrate. When required, additional water and/or 97:3 v/v acetone/DMSO can be added to individual application solutions so that the final acetone and DMSO concentrations of the application solutions being compared are 16.2% and 0.5%, respectively.
(§6) All stock solutions and applications solutions were visually inspected for compound compatibility prior to application. Compound requirements are based upon a 12 mL application volume at a rate of 187 liters per hectare (L/ha). […]

[2] = tested on: SORHA Sorghum halepense (L.) Pers. (Johnsongrass)
Excerpt: as §1, §2, §3, §4, §5, §6

[3] = tested on: LOLMU Lolium multiflorum Lam. (Italian ryegrass)
Excerpt: as §1, §2, §3, §4, §5, §6

[4] = tested on: OEOBI Oenothera biennis (evening primrose)
Excerpt: as §1, §2, §3, §4, §5, §6

[5] = tested on: AVEFA Avena fatua L. (wild oat)
Excerpt: as §1, §2, §3, §4, §5, §6

Molecule: potassium (K^+) salt of 4-amino-3-chloro-6-(4-chloro-2-fluoro-3-methoxyphenyl)-pyridine-2-carboxylic acid [Cmpd 4]
- Percent (%) injury rated visually 14 DAA Obs ([1]; Cmpd 4 3.75 g ae/ha): 20%
- Percent (%) injury rated visually 14 DAA Obs ([1]; Cmpd 4 7.5 g ae/ha): 15%
- Percent (%) injury rated visually 14 DAA Obs ([1]; Cmpd 4 15 g ae/ha): 40%
- Percent (%) injury rated visually 14 DAA Obs ([2]; Cmpd 4 3.75 g ae/ha): 0%
- Percent (%) injury rated visually 14 DAA Obs ([2]; Cmpd 4 7.5 g ae/ha): 0%
- Percent (%) injury rated visually 14 DAA Obs ([2]; Cmpd 4 15 g ae/ha): 10%
- Percent (%) injury rated visually 14 DAA Obs ([3]; Cmpd 4 3.75 g ae/ha): 0%
- Percent (%) injury rated visually 14 DAA Obs ([3]; Cmpd 4 7.5 g ae/ha): 15%
- Percent (%) injury rated visually 14 DAA Obs ([3]; Cmpd 4 15 g ae/ha): 40%
- Percent (%) injury rated visually 14 DAA Obs ([4]; Cmpd 4 3.75 g ae/ha): 50%
- Percent (%) injury rated visually 14 DAA Obs ([4]; Cmpd 4 7.5 g ae/ha): 80%

Molecule: COc1c(Cl)ccc(-c2cc(N)c(Cl)c(C(=O)OCc3ccccc3)n2)c1F [Cmpd 3, benzyl ester of 4-amino-3-chloro-6-(4-chloro-2-fluoro-3-methoxyphenyl)-pyridine-2-carboxylic acid]
- Percent (%) injury rated visually 14 DAA Obs ([5]; Cmpd 3 3.75 g ae/ha): 10%
- Percent (%) injury rated visually 14 DAA Obs ([5]; Cmpd 3 7.5 g ae/ha): 0%
- Percent (%) injury rated visually 14 DAA Obs ([5]; Cmpd 3 15 g ae/ha): 0%
- Percent (%) injury rated visually 14 DAA Obs ([1]; Cmpd 3 3.75 g ae/ha): 40%
- Percent (%) injury rated visually 14 DAA Obs ([1]; Cmpd 3 7.5 g ae/ha): 40%
- Percent (%) injury rated visually 14 DAA Obs ([1]; Cmpd 3 15 g ae/ha): 35%
- Percent (%) injury rated visually 14 DAA Obs ([3]; Cmpd 3 3.75 g ae/ha): 15%
- Percent (%) injury rated visually 14 DAA Obs ([3]; Cmpd 3 7.5 g ae/ha): 50%
- Percent (%) injury rated visually 14 DAA Obs ([3]; Cmpd 3 15 g ae/ha): 40%

Molecule: C#CCOC(=O)c1nc(-c2ccc(Cl)c(OC)c2F)cc(N)c1Cl [Cmpd 2, propargyl ester of 4-amino-3-chloro-6-(4-chloro-2-fluoro-3-methoxyphenyl)-pyridine-2-carboxylic acid]
- Percent (%) injury rated visually 14 DAA Obs ([2]; Cmpd 2 3.75 g ae/ha): 0%
- Percent (%) injury rated visually 14 DAA Obs ([2]; Cmpd 2 7.5 g ae/ha): 0%
- Percent (%) injury rated visually 14 DAA Obs ([2]; Cmpd 2 15 g ae/ha): 10%
- Percent (%) injury rated visually 14 DAA Obs ([4]; Cmpd 2 3.75 g ae/ha): 65%
